The record followed here is patent US20250288683A1, “TETRAHYDROISOQUINOLINE HETEROBIFUNCTIONAL BCL-XL DEGRADERS” (Treeline Biosciences, Inc., priority 2022, published 2025).

T1 sequence (Q07817 whole entry): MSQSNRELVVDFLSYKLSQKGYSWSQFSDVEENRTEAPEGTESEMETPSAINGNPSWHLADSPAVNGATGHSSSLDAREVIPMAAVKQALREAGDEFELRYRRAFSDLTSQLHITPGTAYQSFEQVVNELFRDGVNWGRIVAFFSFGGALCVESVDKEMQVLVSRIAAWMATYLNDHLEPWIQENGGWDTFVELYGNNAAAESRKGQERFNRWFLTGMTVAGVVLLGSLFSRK

The first assay has as its target T1, Human BCL-XL protein (N-terminal HiBiT tagged BCL-XL in HT1080 cells) (Homo sapiens, UniProt Q07817).
T1 construct: expressed in transfected cells; host or cells: HT-1080 (ATCC CCL-121), stably transduced with lentivirus pLV-UBC-N-HiBiT-BCL-XL-PGK-puro and selected with puromycin
In words: HiBiT based degradation assay. It is filed as cell-based. The conditions noted are these: HT1080 cells expressing N-terminal HiBiT tagged BCL-XL, 6 h, normalized with DMSO control. From the text:
HiBiT Based Degradation Assay
Human BCL-XL protein coding open reading frame fused with N-terminal HiBiT coding sequence was synthesized from Integrated DNA Technologies (IDT). Next, N-HiBiT-BCL-XL sequence was cloned into pLV-UBC-PGK-Puro, a lentivirus plasmid purchased from Vectorbuilder, to generate pLV-UBC-N-HiBiT-BCL-XL-PGK-puro. Lentiviral particles were generated from Lenti-X™ 293T cells (Clontech) by co-transfection of pLV-UBC-N-HiBiT-BCL-XL-PGK-puro plasmids and lentiviral packaging plasmid mix (Cellecta). HT-1080 [HT1080](ATCC CCL-121) cells were infected with the lentivirus, and HT1080 cells stably integrated with the lentiviral vectors were established by incubation with 1 μg/mL puromycin (Thermofisher).
HT1080 cells expressing N-terminal HiBiT tagged BCL-XL were dispensed into a 384-well plate pre-spotted with compounds at varying concentrations. Three thousand cells were seeded into each well in 40 μL of RPMI 1640 media. […] After incubation, luminescence was read on a PHERAstar FSX Plate Reader (BMG). BCL-XL degradation at each indicated concentration was normalized with the DMSO control. The BCL-XL degradation curves were plotted using a four-parameter logistic model. For compounds displaying hook effects, the curve fitting was performed using the bottom point of the hook curves (i.e., the point of Ymin) as the bottom plateau to calculate EC50.
On to `Cc1ncsc1-c1ccc([C@H](C)NC(=O)[C@@H]2C[C@@H](O)CN2C(=O)[C@@H](NC(=O)CCCCCn2nc(C)c(-c3ccc(N4CCc5cccc(C(=O)Nc6nc7ccccc7s6)c5C4)nc3C(=O)O)c2C)C(C)(C)C)cc1` [Compound 101a, 6-[8-(1,3-benzothiazol-2-ylcarbamoyl)-3,4-dihydro-1H-isoquinolin-2-yl]-3-[1-[6-[[(1S)-1-[(2S,4R)-4-hydroxy-2-[[(1S)-1-[4-(4-methylthiazol-5-yl)phenyl]ethyl]carbamoyl]pyrrolidine-1-carbonyl]-2,2-dimethyl-propyl]amino]-6-oxo-hexyl]-3,5-dimethyl-pyrazol-4-yl]pyridine-2-carboxylic acid], for which the “Ymin (6 h)” value is recorded as “A (Ymin < 50%)”.
The same measure, in the same setting: the same measure for `Cc1ncsc1-c1ccc([C@H](C)NC(=O)[C@@H]2C[C@@H](O)CN2C(=O)[C@@H](NC(=O)CCCCCCCCCCCCCCCn2nc(C)c(-c3ccc(N4CCc5cccc(C(=O)Nc6nc7ccccc7s6)c5C4)nc3C(=O)O)c2C)C(C)(C)C)cc1` [Compound 102a, 6-[8-(1,3-Benzothiazol-2-ylcarbamoyl)-3,4-dihydro-1H-isoquinolin-2-yl]-3-[1-[16-[[(1S)-1-[(2S,4R)-4-hydroxy-2-[[(1S)-1-[4-(4-methylthiazol-5-yl)phenyl]ethyl]carbamoyl]pyrrolidine-1-carbonyl]-2,2-dimethyl-propyl]amino]-16-oxo-hexadecyl]-3,5-dimethyl-pyrazol-4-yl]pyridine-2-carboxylic acid]: “A (Ymin < 50%)”; for `Cc1ncsc1-c1ccc([C@H](C)NC(=O)[C@@H]2C[C@@H](O)CN2C(=O)[C@@H](NC(=O)CCCCCCCn2nc(C)c(-c3ccc(N4CCc5cccc(C(=O)Nc6nc7ccccc7s6)c5C4)nc3C(=O)O)c2C)C(C)(C)C)cc1` [Compound 103a, 6-[8-(1,3-benzothiazol-2-ylcarbamoyl)-3,4-dihydro-1H-isoquinolin-2-yl]-3-[1-[8-[[(1S)-1-[(2S,4R)-4-hydroxy-2-[[(1S)-1-[4-(4-methylthiazol-5-yl)phenyl]ethyl]carbamoyl]pyrrolidine-1-carbonyl]-2,2-dimethyl-propyl]amino]-8-oxo-octyl]-3,5-dimethyl-pyrazol-4-yl]pyridine-2-carboxylic acid]: “A (Ymin < 50%)”.

The assay is the same for the next values; noted with them: HT1080 cells expressing N-terminal HiBiT tagged BCL-XL, 24 h, normalized with DMSO control.
Turning to `Cc1ncsc1-c1ccc([C@H](C)NC(=O)[C@@H]2C[C@@H](O)CN2C(=O)[C@@H](NC(=O)C[C@@H](Cc2ccc(Oc3cccc(-c4ccc(N5CCc6cccc(C(=O)Nc7nc8ccccc8s7)c6C5)nc4C(=O)O)c3C)cc2)C(F)(F)F)C(C)(C)C)cc1` (relative stereo) [Compound 131b, 6-(8-(benzo[d]thiazol-2-ylcarbamoyl)-3,4-dihydroisoquinolin-2 (1H)-yl)-3-(3-(4-((R)-4-(((S)-1-((2S,4R)-4-hydroxy-2-(((S)-1-(4-(4-methylthiazol-5-yl)phenyl)ethyl)carbamoyl)pyrrolidin-1-yl)-3,3-dimethyl-1-oxobutan-2-yl)amino)-4-oxo-2-(trifluoromethyl)butyl)phenoxy)-2-methylphenyl)picolinic acid], the “Ymin (24 h)” value is reported as “B (50% ≤ Ymin < 70%)”.
On the same count and under the same terms, the same measure for `Cc1ncsc1-c1ccc([C@H](C)NC(=O)[C@@H]2C[C@@H](O)CN2C(=O)[C@@H](NC(=O)C[C@@H](C)Cc2ccc(Oc3cccc(-c4ccc(N5CCc6cccc(C(=O)Nc7nc8ccccc8s7)c6C5)nc4C(=O)O)c3C)cc2)C(C)(C)C)cc1` (relative stereo) [Compound 134a, 6-[8-(1,3-benzothiazol-2-ylcarbamoyl)-3,4-dihydro-1H-isoquinolin-2-yl]-3-[3-[4-[(2S)-4-[[(1S)-1-[(2S,4R)-4-hydroxy-2-[[(1S)-1-[4-(4-methylthiazol-5-yl)phenyl]ethyl]carbamoyl]pyrrolidine-1-carbonyl]-2,2-dimethyl-propyl]amino]-2-methyl-4-oxo-butyl]phenoxy]-2-methyl-phenyl]pyridine-2-carboxylic acid]: “A (Ymin < 50%)”.
Still for that read-out and setting: the entry for `Cc1ncsc1-c1ccc([C@H](C)NC(=O)[C@@H]2C[C@@H](O)CN2C(=O)[C@@H](NC(=O)CC[C@@H](c2ccc(Oc3cccc(-c4ccc(N5CCc6cccc(C(=O)Nc7nc8ccccc8s7)c6C5)nc4C(=O)O)c3C)cc2)C(F)(F)F)C(C)(C)C)cc1` (relative stereo) [Compound 135a, 6-(8-(benzo[d]thiazol-2-ylcarbamoyl)-3,4-dihydroisoquinolin-2 (1H)-yl)-3-(2-methyl-3-(4-((S)-1,1,1-trifluoro-5-(((S)-1-((2S,4R)-4-hydroxy-2-(((S)-1-(4-(4-methylthiazol-5-yl)phenyl)ethyl)carbamoyl)pyrrolidin-1-yl)-3,3-dimethyl-1-oxobutan-2-yl)amino)-5-oxopentan-2-yl)phenoxy)phenyl)picolinic acid] is “A (Ymin < 50%)”; for `Cc1ncsc1-c1ccc([C@H](C)NC(=O)[C@@H]2C[C@@H](O)CN2C(=O)[C@@H](NC(=O)CC[C@H](c2ccc(Oc3cccc(-c4ccc(N5CCc6cccc(C(=O)Nc7nc8ccccc8s7)c6C5)nc4C(=O)O)c3C)cc2)C(F)(F)F)C(C)(C)C)cc1` (relative stereo) [Compound 135b, 6-(8-(benzo[d]thiazol-2-ylcarbamoyl)-3,4-dihydroisoquinolin-2 (1H)-yl)-3-(2-methyl-3-(4-((R)-1,1,1-trifluoro-5-(((S)-1-((2S,4R)-4-hydroxy-2-(((S)-1-(4-(4-methylthiazol-5-yl)phenyl)ethyl)carbamoyl)pyrrolidin-1-yl)-3,3-dimethyl-1-oxobutan-2-yl)amino)-5-oxopentan-2-yl)phenoxy)phenyl)picolinic acid] it is “A (Ymin < 50%)”; for `Cc1ncsc1-c1ccc([C@H](C)NC(=O)[C@@H]2C[C@@H](O)CN2C(=O)[C@@H](NC(=O)CC[C@H](C)c2ccc(Oc3cccc(-c4ccc(N5CCc6cccc(C(=O)Nc7nc8ccccc8s7)c6C5)nc4C(=O)O)c3C)cc2)C(C)(C)C)cc1` (single isomer, unassigned) [Compound 129a] it is “A (Ymin < 50%)”.
Same read-out and setting: the same measure for `Cc1ncsc1-c1ccc([C@H](C)NC(=O)[C@@H]2C[C@@H](O)CN2C(=O)[C@@H](NC(=O)CC[C@@H](C)c2ccc(Oc3cccc(-c4ccc(N5CCc6cccc(C(=O)Nc7nc8ccccc8s7)c6C5)nc4C(=O)O)c3C)cc2)C(C)(C)C)cc1` (single isomer, unassigned) [Compound 129b]: “A (Ymin < 50%)”.
In the case of `Cc1ncsc1-c1ccc([C@H](C)NC(=O)[C@@H]2C[C@@H](O)CN2C(=O)[C@@H](NC(=O)C[C@H](Cc2ccc(Oc3cccc(-c4ccc(N5CCc6cccc(C(=O)Nc7nc8ccccc8s7)c6C5)nc4C(=O)O)c3C)cc2)C(F)(F)F)C(C)(C)C)cc1` (single isomer, unassigned) [Compound 131a], the “Ymin (24 h)” value is “A (Ymin < 50%)”.
Consider `Cc1ncsc1-c1ccc([C@H](C)NC(=O)[C@@H]2C[C@@H](O)CN2C(=O)[C@@H](NC(=O)CC(C)Cc2ccc(Oc3cccc(-c4ccc(N5CCc6cccc(C(=O)Nc7nc8ccccc8s7)c6C5)nc4C(=O)O)c3C)cc2)C(C)(C)C)cc1` (single isomer, unassigned) [Compound 134b, 6-(8-(benzo[d]thiazol-2-ylcarbamoyl)-3,4-dihydroisoquinolin-2(1H)-yl)-3-(3-(4-((R*)-4-(((S)-1-((2S,4R)-4-hydroxy-2-(((S)-1-(4-(4-methylthiazol-5-yl)phenyl)ethyl)carbamoyl)pyrrolidin-1-yl)-3,3-dimethyl-1-oxobutan-2-yl)amino)-2-methyl-4-oxobutyl)phenoxy)-2-methylphenyl)picolinic acid], for which the “Ymin (24 h)” value is listed as “A (Ymin < 50%)”.
Still for that read-out and setting: the entry for `Cc1ncsc1-c1ccc([C@H](C)NC(=O)[C@@H]2C[C@@H](O)CN2C(=O)[C@@H](NC(=O)C(C)(C)[C@H]2CC[C@@H](Oc3cccc(-c4ccc(N5CCc6cccc(C(=O)Nc7nc8ccccc8s7)c6C5)nc4C(=O)O)c3C)CC2)C(C)(C)C)cc1` (single isomer, unassigned) [Compound 138a] is “A (Ymin < 50%)”; for `Cc1ncsc1-c1ccc([C@H](C)NC(=O)[C@@H]2C[C@@H](O)CN2C(=O)[C@@H](NC(=O)C(C)(C)[C@H]2CC[C@H](Oc3cccc(-c4ccc(N5CCc6cccc(C(=O)Nc7nc8ccccc8s7)c6C5)nc4C(=O)O)c3C)CC2)C(C)(C)C)cc1` (single isomer, unassigned) [Compound 138b] it is “C (Ymin ≥ 70%)”; for `Cc1ncsc1-c1ccc([C@H](C)NC(=O)[C@@H]2C[C@@H](O)CN2C(=O)[C@@H](NC(=O)[C@H](C)CCc2ccc(Oc3cccc(-c4ccc(N5CCc6cccc(C(=O)Nc7nc8ccccc8s7)c6C5)nc4C(=O)O)c3C)cc2)C(C)(C)C)cc1` (single isomer, unassigned) [Compound 143a] it is “A (Ymin < 50%)”.
The same measure, in the same setting: the entry for `Cc1ncsc1-c1ccc([C@H](C)NC(=O)[C@@H]2C[C@@H](O)CN2C(=O)[C@@H](NC(=O)[C@@H](C)CCc2ccc(Oc3cccc(-c4ccc(N5CCc6cccc(C(=O)Nc7nc8ccccc8s7)c6C5)nc4C(=O)O)c3C)cc2)C(C)(C)C)cc1` (single isomer, unassigned) [Compound 143b] is “A (Ymin < 50%)”.
